Experimental data published in US9556179B2 (BRISTOL-MYERS SQUIBB COMPANY, priority 2012, dated 2017).

How the values were obtained:
CK1δ = CK1δ (Homo sapiens (Human), UniProt P48730); test: CK1δ kinase assay (Caliper LABCHIP electrophoretic separation of fluoresceinated peptide substrate and product); format: biochemical; conditions: 200 pM enzyme, 50 μM ATP, 22 hours at room temperature
Method in brief: (§1)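 IC50 values were obtained by non-linear regression from eleven-concentration titrations. The kinase reactions were incubated for 22 hours at room temperature before termination with 35 mM EDTA.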

CK1ε = CK1ε (Homo sapiens (Human), UniProt P49674); test: CK1ε kinase assay (Caliper LABCHIP electrophoretic separation of fluoresceinated peptide substrate and product); format: biochemical; conditions: 200 pM enzyme, 50 μM ATP, 22 hours at room temperature
CK1ε, sequence (P49674 whole entry): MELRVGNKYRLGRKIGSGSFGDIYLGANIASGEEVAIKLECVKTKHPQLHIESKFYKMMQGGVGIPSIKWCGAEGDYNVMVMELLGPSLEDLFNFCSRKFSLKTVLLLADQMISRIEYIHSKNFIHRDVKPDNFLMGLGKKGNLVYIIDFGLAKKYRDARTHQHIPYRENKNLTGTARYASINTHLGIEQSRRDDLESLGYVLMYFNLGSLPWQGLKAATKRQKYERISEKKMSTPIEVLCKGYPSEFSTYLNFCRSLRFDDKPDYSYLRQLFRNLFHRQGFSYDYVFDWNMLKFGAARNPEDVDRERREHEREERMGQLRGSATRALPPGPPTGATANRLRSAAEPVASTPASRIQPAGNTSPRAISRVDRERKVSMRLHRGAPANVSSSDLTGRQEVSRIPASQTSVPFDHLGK
Method in brief: as §1

CK1δ, sequence (P48730 whole entry): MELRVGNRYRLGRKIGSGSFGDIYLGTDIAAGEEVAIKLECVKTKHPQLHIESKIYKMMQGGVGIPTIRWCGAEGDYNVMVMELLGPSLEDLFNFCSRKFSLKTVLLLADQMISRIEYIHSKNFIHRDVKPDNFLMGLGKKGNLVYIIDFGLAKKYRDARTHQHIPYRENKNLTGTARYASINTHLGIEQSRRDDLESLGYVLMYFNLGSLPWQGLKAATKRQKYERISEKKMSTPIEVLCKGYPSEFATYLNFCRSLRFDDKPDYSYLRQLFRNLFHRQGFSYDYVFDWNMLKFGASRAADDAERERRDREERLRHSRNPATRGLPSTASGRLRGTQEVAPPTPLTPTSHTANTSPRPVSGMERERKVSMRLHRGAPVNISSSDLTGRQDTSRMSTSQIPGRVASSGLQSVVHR

SMILES	IC50 (CK1δ)	IC50 (CK1ε)
O=C(Nc1cn2nc(-c3c(-c4ccc(F)cc4)ncn3C3CCN(C[C@H](O)C(F)(F)F)CC3)ccc2n1)c1ccnc(F)c1 [Compound 38, (S)-2-fluoro-N-(6-(4-(4-fluorophenyl)-1-(1-(3,3,3-trifluoro-2-hydroxypropyl)piperidin-4-yl)-1H-imidazol-5-yl)imidazo[1,2-b]pyridazin-2-yl)isonicotinamide]	0.292 nM	0.305 nM
Cn1cnc(Cn2cnc(-c3ccc(F)cc3)c2-c2ccc3nc(NC(=O)c4ccnc(F)c4)cn3n2)c1 [Compound 253, 2-fluoro-N-(6-(4-(4-fluorophenyl)-1-((1-methyl-1H-imidazol-4-yl)methyl)-1H-imidazol-5-yl)imidazo[1,2-b]pyridazin-2-yl) isonicotinamide]	1.15 nM	18 nM
O=C(Nc1cn2nc(-c3c(-c4ccc(F)cc4)ncn3CC(F)(F)F)ccc2n1)c1ccnc(F)c1 [Compound 236]	0.266 nM	1.15 nM
NCC(=O)N1CCC(n2c(C3CC3)nc(-c3ccc(F)cc3)c2-c2ccc3nc(NC(=O)c4cccc(-c5cccnc5)c4)cn3n2)CC1 [Compound 137, N-(6-(1-(1-(2-aminoacetyl)piperidin-4-yl)-2-cyclopropyl-4-(4-fluorophenyl)-1H-imidazol-5-yl)imidazo[1,2-b]pyridazin-2-yl)-3-(pyridin-3-yl)benzamide]	0.203 nM	5.78 nM
O=C(Nc1cn2nc(-c3c(-c4ccc(F)cc4)nc4ccc(N5CCOCC5)cn34)ccc2n1)c1ccnc(F)c1 [Compound 452, 2-Fluoro-N-(6-(2-(4-fluorophenyl)-6-morpholinoimidazo[1,2-a]pyridin-3-yl)imidazo[1,2-b]pyridazin-2-yl)isonicotinamide]	0.3 nM	1.5 nM
O=C(Nc1cn2nc(-c3c(-c4ccc(F)cc4)nc4n3CCOC4)ccc2n1)c1cccc(-c2cccnc2)c1 [Compound 451, N-(6-(2-(4-Fluorophenyl)-6,8-dihydro-5H-imidazo[2,1-c][1,4]oxazin-3-yl)imidazo[1,2-b]pyridazin-2-yl)-3-(pyridin-3-yl)benzamide]	0.4 nM	4.6 nM
O=C(Nc1cn2nc(-c3c(-c4ccc(F)cc4)nc4ccc(NC5CCC5)nn34)ccc2n1)c1ccncc1 [Compound 227]	12.5 nM	36.9 nM
Cc1nc(-c2ccc(F)cc2)c(-c2ccc3nc(NC(=O)N4CCCC4)cn3n2)n1C [Compound 409, N-(6-(4-(4-fluorophenyl)-1,2-dimethyl-1H-imidazol-5-yl)imidazo[1,2-b]pyridazin-2-yl)pyrrolidine-1-carboxamide]	58 nM	30.8 nM
CC(C)(C)NC(=O)N1CCn2c(nc(-c3ccc(F)cc3)c2-c2ccc3nc(NC(=O)c4ccnc(F)c4)cn3n2)C1 [Compound 481, N-(tert-Butyl)-3-(2-(2-fluoroisonicotinamido)imidazo[1,2-b]pyridazin-6-yl)-2-(4-fluorophenyl)-5,6-dihydroimidazo[1,2-a]pyrazine-7(8H)-carboxamide]	0.6 nM	5.4 nM
O=C(Nc1cn2nc(-c3c(-c4ccc(F)cc4)nc4n3CCOC4)ccc2n1)c1ccncc1 [Compound 448, N-(6-(2-(4-Fluorophenyl)-6,8-dihydro-5H-imidazo[2,1-c][1,4]oxazin-3-yl)imidazo[1,2-b]pyridazin-2-yl)isonicotinamide]	0.4 nM	3.6 nM
O=C(Nc1cn2nc(-c3c(-c4ccc(F)cc4)nc4n3CCN(C(=O)CCC(F)(F)F)C4)ccc2n1)c1ccnc(F)c1 [Compound 462, 2-Fluoro-N-(6-(2-(4-fluorophenyl)-7-(4,4,4-trifluorobutanoyl)-5,6,7,8-tetrahydroimidazo[1,2-a]pyrazin-3-yl)imidazo[1,2-b]pyridazin-2-yl)isonicotinamide]	1.2 nM	6.5 nM
O=C(Nc1cn2nc(-c3c(-c4cccc(Cl)c4)ncn3CC(F)F)ccc2n1)c1ccnc(F)c1 [Compound 242, N-(6-(4-(3-chlorophenyl)-1-(2,2-difluoroethyl)-1H-imidazol-5-yl)imidazo[1,2-b]pyridazin-2-yl)-2-fluoroisonicotinamide]	2.16 nM	12 nM
